Like-named read-outs stand apart in the source and are kept apart here.
Legend:
Assay in all cases: RNA-dependent DNA polymerase assay, [3H]-dTTP incorporation
Assay type in all cases: biochemical
[1] = molecular target: T1, C RT-2 (HIV-1 subtype C RT, isolate M01) (HIV-1 M:C_92BR025, UniProt O12158); conditions: HIV-1 PBS RNA/dPR template/primer 30 nM, dNTPs 5 μM each, 6 mM MgCl2, 60 mM KCl, pH 7.8, 37°C, 30 min, read-out: IC50 (μM)^a / C RT-2 ^e
T1 construct: gene gag-pol; p66/p51 heterodimer cut from the Pol (Gag-Pol) polyprotein; His-tagged, E. coli; with p51 RT of Gag-Pol polyprotein
Source text: RNA-dependent DNA polymerase assay, [3H]-dTTP incorporation on C RT-2 (HIV-1 subtype C RT, isolate M01)

[2] = molecular target: T2, B RT-1 (HIV-1 subtype B RT, NL4-3) (Human immunodeficiency virus type 1 (NEW YORK-5 ISOLATE), UniProt P12497)
T2 construct: gene gag-pol; p66/p51 heterodimer cut from the Pol (Gag-Pol) polyprotein; plasmid pbRT6H-PROT with co-expressed HIV-1 protease; 6-His tag; E. coli M15; Ni-NTA, DEAE- and SP-Sepharose; with p51 RT of Gag-Pol polyprotein
Source text: RNA-dependent DNA polymerase assay, [3H]-dTTP incorporation on B RT-1 (HIV-1 subtype B RT, NL4-3)

[3] = molecular target: T3, B RT-2 (HIV-1 subtype B RT, HXB2) (HIV-1 M:B_HXB2R, UniProt P04585)
T3 construct: gene gag-pol; p66/p51 heterodimer cut from the Pol (Gag-Pol) polyprotein; plasmid pRT6H-PROT with co-expressed HIV-1 protease; 6-His tag; E. coli M15; Ni-NTA, DEAE- and SP-Sepharose; with p51 RT of Gag-Pol polyprotein
Source text: RNA-dependent DNA polymerase assay, [3H]-dTTP incorporation on B RT-2 (HIV-1 subtype B RT, HXB2)

[4] = NNRTI, non-competitive allosteric
[5] = nucleotide analogue, competitive at active site
[6] = read-out: IC50 (μM)^a / B RT-2^c
[7] = read-out: IC50 (μM)^a / B RT-1^b

Row | Structure (SMILES) | IC50 [1, 4] [µM] | IC50 [1, 5] [µM] | IC50 [3, 6] [µM] | IC50 [2, 7] [µM] | also measured
1 | Cc1ccnc2c1NC(=O)c1cccnc1N2C1CC1 [NVP] | 4.3 ± 0.3 |  |  |  | 
2 | Nc1ccn([C@@H]2CS[C@H](COP(=O)(O)OP(=O)(O)OP(=O)(O)O)O2)c(=O)n1 [3TC-TP] |  | 4.1 ± 0.4 |  |  | IC50 [2]: 2.7 ± 0.3 µM
3 | C[C@H](Cn1cnc2c(N)ncnc21)OCP(=O)(O)OP(=O)(O)OP(=O)(O)O [TFV-DP] |  | 2.9 ± 0.4 | 2.1 ± 0.3 | 2.5 ± 0.3 | 
4 | O=C1Nc2ccc(Cl)cc2[C@@](C#CC2CC2)(C(F)(F)F)O1 [EFV] | 0.18 ± 0.02 |  |  |  | 
5 | Cc1cc(C#N)cc(C)c1Oc1nc(Nc2ccc(C#N)cc2)nc(N)c1Br [ETR] | 0.19 ± 0.03 |  | 0.16 ± 0.02 | 0.17 ± 0.03 | 
6 | Cc1cn([C@H]2C[C@H](N=[N+]=[N-])[C@@H](CO[P@](=O)(O)O[P@](=O)(O)OP(=O)(O)O)O2)c(=O)[nH]c1=O [ZDV-TP] |  |  |  |  | IC50 ([1]; 150 μM sodium pyrophosphate included, nucleotide analogue, competitive at active site): 3.8 ± 0.5 µM; IC50 [3]: 2.9 ± 0.4 µM

Source: PMC2959035, “Comparative biochemical analysis of recombinant reverse transcriptase enzymes of HIV-1 subtype B and subtype C” (Retrovirology, 2010)
